Measured values: patent US20260262643A1, “HERBICIDAL BENZOXAZINES” (FMC CORPORATION, priority 2022, published 2026)

How the values were obtained:
wheat [1] = assay: Test A preemergence; assay type: in vivo, Triticum aestivum
How it was run: (§1)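 Greenhouse pot test, 10 days. Compound (non-phytotoxic solvent, surfactant) sprayed on soil at seeding or on seedlings at one- to two-leaf stage. Visual injury rated 0–100 against untreated plants.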

sedge, umbrella = assay: Test B flooded paddy test; assay type: in vivo, Cyperus difformis; conditions: 250 g ai/ha, Flood, 13 days, 0 to 100 scale (0 no effect, 100 complete control)
How it was run: (§2)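 Percent weed or crop control, judged by eye on a 0–100 scale 13 days post-treatment, reflects compound added to a 3 cm flood maintained over 2-leaf plants in the greenhouse. Missing entries are marked with a dash.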

goosegrass [2] = assay: Test A postemergence; assay type: in vivo, Eleusine indica; conditions: postemergence, 10 days
How it was run: as §1

foxtail, giant [3] = assay: Test A postemergence; assay type: in vivo, Setaria faberi; conditions: postemergence, 10 days
How it was run: as §1

ryegrass, Italian [4] = assay: Test A preemergence; assay type: in vivo, Lolium multiflorum
How it was run: as §1

pigweed, palmer [5] = assay: Test A preemergence; assay type: in vivo, Amaranthus palmeri
How it was run: as §1

oat, wild [6] = assay: Test A postemergence; assay type: in vivo, Avena fatua; conditions: postemergence, 10 days
How it was run: as §1

ducksalad = assay: Test B flooded paddy test; assay type: in vivo, Heteranthera limosa; conditions: 250 g ai/ha, Flood, 13 days, 0 to 100 scale (0 no effect, 100 complete control)
How it was run: as §2

goosegrass [7] = assay: Test A preemergence; assay type: in vivo, Eleusine indica
How it was run: as §1

ryegrass, Italian [8] = assay: Test A postemergence; assay type: in vivo, Lolium multiflorum; conditions: postemergence, 10 days
How it was run: as §1

barnyardgrass = assay: Test B flooded paddy test; assay type: in vivo, Echinochloa crus-galli; conditions: 250 g ai/ha, Flood, 13 days, 0 to 100 scale (0 no effect, 100 complete control)
How it was run: as §2

blackgrass [9] = assay: Test A preemergence; assay type: in vivo, Alopecurus myosuroides
How it was run: as §1

kochia [10] = assay: Test A preemergence; assay type: in vivo, Bassia scoparia
How it was run: as §1

wheat [11] = assay: Test A postemergence; assay type: in vivo, Triticum aestivum; conditions: postemergence, 10 days
How it was run: as §1

oat, wild [12] = assay: Test A preemergence; assay type: in vivo, Avena fatua
How it was run: as §1

corn [13] = assay: Test A postemergence; assay type: in vivo, Zea mays; conditions: postemergence, 10 days
How it was run: as §1

soybean [14] = assay: Test A preemergence; assay type: in vivo, Glycine max
How it was run: as §1

galium = assay: Test A postemergence; assay type: in vivo, Galium aparine; conditions: postemergence, 10 days
How it was run: as §1

corn [15] = assay: Test A preemergence; assay type: in vivo, Zea mays
How it was run: as §1

pigweed, palmer [16] = assay: Test A postemergence; assay type: in vivo, Amaranthus palmeri; conditions: postemergence, 10 days
How it was run: as §1

horseweed = assay: Test A postemergence; assay type: in vivo, Erigeron canadensis; conditions: postemergence, 10 days
How it was run: as §1

ragweed [17] = assay: Test A postemergence; assay type: in vivo, Ambrosia artemisiifolia; conditions: postemergence, 10 days
How it was run: as §1

kochia [18] = assay: Test A postemergence; assay type: in vivo, Bassia scoparia; conditions: postemergence, 10 days
How it was run: as §1

rice = assay: Test B flooded paddy test; assay type: in vivo, Oryza sativa; conditions: 250 g ai/ha, Flood, 13 days, 0 to 100 scale (0 no effect, 100 complete control)
How it was run: as §2

foxtail, giant [19] = assay: Test A preemergence; assay type: in vivo, Setaria faberi
How it was run: as §1

soybean [20] = assay: Test A postemergence; assay type: in vivo, Glycine max; conditions: postemergence, 10 days
How it was run: as §1

ragweed [21] = assay: Test A preemergence; assay type: in vivo, Ambrosia artemisiifolia
How it was run: as §1

blackgrass [22] = assay: Test A postemergence; assay type: in vivo, Alopecurus myosuroides; conditions: postemergence, 10 days
How it was run: as §1

[23] = 125 g ai/ha, visual injury after 10 days, 0 to 100 scale, 0 is no effect, 100 is complete control
[24] = 500 g ai/ha, 0 to 100 scale (0 no effect, 100 complete control), 10 days
[25] = 125 g ai/ha, 0 to 100 scale, 0 no effect, 100 complete control
[26] = 500 g ai/ha, visual injury, 0 to 100 scale (0 no effect, 100 complete control)

CC(C)Oc1ccc(-n2cnc(C(C)C)n2)cc1C(=O)N1C[C@H](C)Oc2c(Cl)cccc21 [Compound 108]
Plant response rating, Wheat (wheat [1]; [23]): 30
Plant response rating, Wheat (wheat [1]; [24]): 40
Plant response rating, Sedge, Umbrella (sedge, umbrella): 80
Goosegrass plant response rating (goosegrass [2]; [25]): 80
Plant response rating, Goosegrass (goosegrass [2]; [26]): 90
Foxtail, Giant plant response rating (foxtail, giant [3]; [25]): 70
Plant response rating, Foxtail, Giant (foxtail, giant [3]; [26]): 90
Plant response rating, Ryegrass, Italian (ryegrass, Italian [4]; [23]): 80
Plant response rating, Ryegrass, Italian (ryegrass, Italian [4]; [24]): 100
Plant response rating, Pigweed, Palmer (pigweed, palmer [5]; [23]): 100
Plant response rating, Pigweed, Palmer (pigweed, palmer [5]; [24]): 100
Oat, Wild plant response rating (oat, wild [6]; [25]): 20
Plant response rating, Oat, Wild (oat, wild [6]; [26]): 70
Plant response rating, Ducksalad (ducksalad): 20
Plant response rating, Goosegrass (goosegrass [7]; [23]): 100
Plant response rating, Goosegrass (goosegrass [7]; [24]): 100
Ryegrass, Italian plant response rating (ryegrass, Italian [8]; [25]): 20
Plant response rating, Ryegrass, Italian (ryegrass, Italian [8]; [26]): 40
Plant response rating, Barnyardgrass (barnyardgrass): 55
Plant response rating, Blackgrass (blackgrass [9]; [23]): 0
Plant response rating, Blackgrass (blackgrass [9]; [24]): 40
Plant response rating, Kochia (kochia [10]; [23]): 0
Plant response rating, Kochia (kochia [10]; [24]): 80
Wheat plant response rating (wheat [11]; [25]): 10
Plant response rating, Wheat (wheat [11]; [26]): 30
Plant response rating, Oat, Wild (oat, wild [12]; [23]): 30
Plant response rating, Oat, Wild (oat, wild [12]; [24]): 30
Corn plant response rating (corn [13]; [25]): 40
Plant response rating, Corn (corn [13]; [26]): 60
Plant response rating, Soybean (soybean [14]; [23]): 50
Plant response rating, Soybean (soybean [14]; [24]): 100
Galium plant response rating (galium; [25]): 80
Plant response rating, Galium (galium; [26]): 90
Plant response rating, Corn (corn [15]; [23]): 0
Plant response rating, Corn (corn [15]; [24]): 30
Pigweed, Palmer plant response rating (pigweed, palmer [16]; [25]): 70
Plant response rating, Pigweed, Palmer (pigweed, palmer [16]; [26]): 70
Horseweed plant response rating (horseweed; [25]): 10
Plant response rating, Horseweed (horseweed; [26]): 20
Ragweed plant response rating (ragweed [17]; [25]): 60
Plant response rating, Ragweed (ragweed [17]; [26]): 60
Kochia plant response rating (kochia [18]; [25]): 70
Plant response rating, Kochia (kochia [18]; [26]): 90
Plant response rating, Rice (rice): 10
Plant response rating, Foxtail, Giant (foxtail, giant [19]; [23]): 90
Plant response rating, Foxtail, Giant (foxtail, giant [19]; [24]): 100
Soybean plant response rating (soybean [20]; [25]): 100
Plant response rating, Soybean (soybean [20]; [26]): 100
Plant response rating, Ragweed (ragweed [21]; [23]): 30
Plant response rating, Ragweed (ragweed [21]; [24]): 90
Blackgrass plant response rating (blackgrass [22]; [25]): 30
Plant response rating, Blackgrass (blackgrass [22]; [26]): 30
